Experimental data as given in paper PMC4710668, “Bioactivation of food genotoxicants 5-hydroxymethylfurfural and furfuryl alcohol by sulfotransferases from human, mouse and rat: a comparative study” (Archives of Toxicology, 2014).

Tests used:
mSult2a3 [1] = test: FFA sulfoconjugation assay (N6-MF-A formation with adenosine as scavenger); assay type: biochemical, mouse
Description: (§1) Cytosolic fractions containing individual SULT forms were prepared from transgenic S. typhimurium TA1538. Table S1 in the Supplementary Material provides a summary of the thirty SULTs used in the current study together with references describing the cloning of the respective S. typhimurium TA1538 strains. The expressed SULT forms are denoted with the prefixes h, m and r for human, mouse and rat enzymes, respectively. Bacteria were grown in Luria Broth medium containing ampicillin (100 µg/ml) by stirring for 8 h at 200 revolutions/min at 37 °C. The bacterial suspensions were centrifuged at 5,000 g for 10 min. The sediments were washed twice with 25 ml of 10 mM potassium phosphate buffer (pH 7.4)/50 mM potassium chloride (KCP buffer) and centrifuged again. The pellets were taken up in 800 µl KCP buffer and sonicated thrice for 15 s with 30 s pauses in between. The soluble fraction was attained by centrifuging for 1 h at 100,000 g. The supernatants (in the following termed cytosolic preparations) were frozen at −80 °C. The protein concentrations were determined according to a bicinchoninic acid (BCA) assay protocol. The SULT concentrations in the cytosolic preparations were estimated after electrophoretic separation and immunodetection using inclusion bodies of different SULT forms as standards (Teubner et al. [2007]). The preparation of SULT inclusion bodies and the immunodetection of SULTs is described in the Supplementary Material, which also contains a representative immunoblot of different amounts of rSult1a1standard and a cytosolic preparation of S. typhimurium expressing rSult1a1 (Fig. S1).
(§2) The reaction mixtures were prepared as described for HMF. In addition, they contained 10 mM adenosine as a nucleophilic scavenger. Following incubation for 20 min at 37 °C, sulfoconjugation reactions were stopped by adding 100 µl cold methanol containing 175 fmol of [^15N5]N ^6-MF-A as the internal standard, mixed and centrifuged at 15,000 g for 10 min. The clear supernatants were subjected to UPLC-MS/MS analyses. Incubations were performed as quadruplicates. At higher concentrations, FFA reacts spontaneously with adenosine at low, but detectable, levels. To correct for the SULT-independent adduct formation, mixtures with SULT-deficient cytosols were carried along simultaneously in duplicate. Controls were subtracted from the experimental samples.
(§3) The ribonucleoside adduct N ^6-((furan-2-yl)methyl)-adenosine (N ^6-MF-A) was analyzed by isotope-dilution UPLC-MS/MS with the same system described above using a HSS T3 column (1.8 µm, 2.1 × 100 mm, Waters). Samples of 8 µl were eluted with 10 mM ammonium bicarbonate buffer, pH 8.0 (A) and methanol (B) using an 6-min gradient from 98 % solvent A to 15 % solvent A at 0.35 ml/min flow rate (Yin et al. [2013]). The electrospray interface of the mass spectrometer operated in the positive ion mode. The fragmentations of N ^6-MF-A into the aglycone cation [N ^6-((furan-2-yl)methyl)-adenine-H]^+ (m/z = 348.1 → 216.1), the cleavage of the 2-methylfuranyl cation (m/z = 348.1 → 81.0) and the release of [N ^6-methyl-adenine-H]^+ (m/z = 348.1 → 148.0) were monitored together with the corresponding fragmentations of the isotope-labeled internal standard [^15N5]N ^6-MF-A for the formation of the aglycone (m/z = 353.1 → 221.1), the 2-methylfuran cation (m/z = 353.1 → 81.0) and ^15N5-labeled N ^6-methyl-adenine (m/z = 353.1 → 153.0). The N ^6-MF-A content of the incubation mixture was calculated from the ratio of peak areas resulting from the total ion current of all three MRM signals of the analyte. For the fragmentation of N ^6-MF-A ([^15N5]N ^6-MF-A), collision energies were 20, 25 and 35 eV for the transitions m/z = 348.1 → 216.1 (m/z = 353.1 → 221.1), m/z = 348.1 → 148.0 (m/z = 353.1 → 153.0) and m/z = 348.1 → 81.0 (m/z = 353.1 → 81.0), respectively. […]

mSult5a1 = test: as above; assay type: biochemical, mouse
Description: as §1, §2, §3

[2] = tested on: S. typhimurium TA100 strains expressing different SULT forms; conditions: ref Glatt et al. [2012]; cited from earlier work
mSult2a3 [3] = test: HMF sulfoconjugation assay; assay type: biochemical, mouse
Description: as §1
The reactions were conducted in mixtures of 100 µl containing 25–200 µg protein, 50 mM potassium phosphate buffer (pH 7.4), 5 mM MgCl2, 50 µM PAPS and different concentrations of HMF at 37 °C. Preliminary experiments ensured that measurements were recorded under ‘linear’ conditions, i.e., doubling of protein concentration or incubation time was doubling the amount of sulfate ester formed. The reactions were stopped after 30 min by adding 300 µl ice-cold 2-propanol, mixed and centrifuged at 15,000 g for 10 min.
SMF concentrations of the clear supernatants were analyzed by UPLC-MS/MS. The protocol was adapted from the quantification of SMF in plasma samples of HMF-treated mice (Monien et al. [2009]). In short, the supernatants were analyzed using a UPLC system (Waters) connected to a Quattro Premier XE tandem quadrupole mass spectrometer (Waters) using the negative electrospray ionization mode. Samples of 4 µl were injected into a HSS T3 column (1.8 µm, 2.1 × 100 mm; Waters) and eluted with an isocratic flow of 0.35 ml/min 10 mM ammonium acetate/methanol (95:5). The fragmentation reactions of SMF yielding two principal ions, the sulfate ion radical (m/z = 204.9 → 96.0) and the protonated sulfonate ion (m/z = 204.9 → 81.0) were monitored. The tune parameters were as follows: temperature of the electrospray source 120 °C; desolvation temperature 475 °C; desolvation gas nitrogen (800 l/h); cone gas nitrogen (100 l/h); collision gas argon (indicated cell pressure ~5 × 10^−3 mbar). For the fragmentation of SMF, collision energies were 20 and 23 eV for the transitions m/z = 204.9 → 81.0 and m/z = 204.9 → 96.0, respectively. The dwell time was set to 100 ms, and capillary voltage was set to 0.35 kV. The cone and RF1 lens voltages were 32 and 0.2 V, respectively. SMF was quantified using an external calibration line that was linear in the concentration range of 1.0 nM (4 fmol/injection) to 2,500 (10 pmol/injection) SMF (r ^2 ≥ 0.99). Data acquisition and handling were performed with MassLynx 4.1 software (Waters). The limit of detection (LOD) for this technique of 2.5 nM SMF has been reported (Monien et al. [2009]). In the current study, this corresponds to 10 fmol SMF per injection or a reaction rate of 0.5 pmol SMF/mg/min.

Row | Compound | Rate of N6-MF-A formation (mSult2a3 [1]; 0.1 mM FFA) | Rate of N6-MF-A formation (mSult2a3 [1]; 1 mM FFA) | Rate of N6-MF-A formation (mSult2a3 [1]; 10 mM FFA) | Rate of N6-MF-A formation (mSult5a1; 0.1 mM FFA) | Rate of N6-MF-A formation (mSult5a1; 1 mM FFA) | Rate of N6-MF-A formation (mSult5a1; 10 mM FFA) | mutagenicity in SULT-expressing strains [2] | Rate of sulfoconjugation (mSult2a3 [3]; 0.1 mM HMF) | Rate of sulfoconjugation (mSult2a3 [3]; 1 mM HMF) | Rate of sulfoconjugation (mSult2a3 [3]; 10 mM HMF) | Rate of sulfoconjugation (mSult2a3 [3]; 100 mM HMF)
1 | OCc1ccco1 [FFA, furfuryl alcohol] | <18 fmol N ^6-MF-A/mg/min | <20 fmol N ^6-MF-A/mg/min | <44 fmol N ^6-MF-A/mg/min | <18 fmol N ^6-MF-A/mg/min | <20 fmol N ^6-MF-A/mg/min | <44 fmol N ^6-MF-A/mg/min | highest mutagenicity of FFA was observed in bacteria expressing hSULT1A1, 1C2 and mSult1a1 | – | – | – | –
2 | O=Cc1ccc(CO)o1 [HMF, 5-Hydroxymethylfurfural] | – | – | – | – | – | – | small, were detectable in those strains that expressed hSULT1A1, 1A3 and 1C2 as well as mSult1a1 and 1d1 | <0.5 pmol/mg/min | <0.5 pmol/mg/min | <0.5 pmol/mg/min | <0.5 pmol/mg/min
